Laboratory results as given in patent US12428369B2, “Crystal form of aromatic vinyl derivatives, and preparation method therefor and use thereof” (GUANGZHOU MAXINOVEL PHARMACEUTICALS CO., LTD., priority 2020, dated 2025).
≈ marks a conversion by molar mass, not a printed value.

Experiments:
[1] = Dynamic vapor sorption (DVS) analysis; assay type: physicochemical; conditions: 25° C.; for hygroscopicity: assessment in words
Experimental: The hygroscopic characteristics of the sample were tested when the humidity changed from 0% RH to 95% RH, and the dehumidifying characteristics of the sample were tested when the humidity changed from 95% RH to 0% RH. The humidity change in each step size was 5% RH, the equilibrium standard was that the weight change rate within 10 min was less than 0.01%/min, and the longest equilibrium time was 2 hours.
The hygroscopic characteristics of the sample were tested when the humidity changed from 0% RH to 95% RH, and the dehumidifying characteristics of the sample were tested when the humidity changed from 95% RH to 0% RH. The humidity change in each step size was 5% RH, the equilibrium standard was that the weight change rate within 5 min was less than 0.01%/min, and the longest equilibrium time was 2 hours.

[2] = Equilibrium solubility and dissolution rate in water, SGF, FaSSIF, FeSSIF; assay type: physicochemical; conditions: for Solubility: 37° C.; for solubility at 0.5 h / solubility at 2 h / solubility at 24 h: 37 °C, thermodynamic from solid
Experimental: To further study whether the equilibrium solubility and dissolution rate of crystal forms A, B and C are different in pure water and physiological related media in vivo, the equilibrium solubility and dissolution rate of […] crystal forms in water, simulated gastric fluid (SGF), fasted-state simulated intestinal fluid (FaSSIF) and fed state simulated intestinal fluid (FeSSIF) were tested respectively.

[3] = Solid-state stability: content and related substances by HPLC; assay type: physicochemical
Experimental: (§1) The samples of crystal forms A, B, and C were weighed and added to a 20 mL colorless transparent glass bottle, respectively, and the sample bottles were respectively placed under the corresponding influencing factors and acceleration conditions (the sample bottles under humidity conditions were sealed with tin foil and placed with holes, and the other samples were covered tightly and placed), taken out after being placed for 1 week and 2 weeks respectively, and the sample content and related substances under various conditions were detected by HPLC; according to the same method as above, samples were respectively weighed and placed under a corresponding influencing factor and accelerated condition, and were taken out after being placed for 2 weeks for observing the appearance and XRPD characterization of each sample, and the physical stability of each crystal form was examined, and the test methods are detailed in table 14 and table 15; at the same time, 2 samples of the crystal forms A, B, and C of the compound as shown in formula I were respectively weighed accurately into 20 mL colorless transparent glass bottles and covered tightly, placed in a −20° C. refrigerator, and taken out as a standard for HPLC analysis at 2 weeks, and the test results are detailed in table 16 and table 17.

[4] = Solid-state stability: appearance and crystal form (XRPD); assay type: physicochemical; conditions: for physical stability: four storage conditions
Experimental: as §1

PD-1 and PD-L1 = PD-1 and PD-L1 (Homo sapiens, UniProt Q9NZQ7); conditions: as disclosed in patent CN109988144A; cited from earlier work
Chain of PD-1 and PD-L1 (Q9NZQ7 19-238 limits assumed): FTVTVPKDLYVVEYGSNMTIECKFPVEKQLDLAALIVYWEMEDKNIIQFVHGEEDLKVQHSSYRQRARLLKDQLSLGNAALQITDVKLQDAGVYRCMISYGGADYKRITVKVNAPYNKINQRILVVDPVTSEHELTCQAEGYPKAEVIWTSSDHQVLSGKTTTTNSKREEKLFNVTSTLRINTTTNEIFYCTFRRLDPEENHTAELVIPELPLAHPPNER

[5] = Acceleration (40° C./75% RH), 1 week
[6] = Acceleration (40° C./75% RH), 2 weeks
[7] = High humidity (92.5% RH), 1 week
[8] = High humidity (92.5% RH), 2 weeks
[9] = High temperature (60° C.), 1 week
[10] = High temperature (60° C.), 2 weeks
[11] = illumination (4500 LuX), 1 week
[12] = illumination (4500 LuX), 2 weeks
[13] = Illumination (4500 Lux), 2 weeks
[14] = high temperature, high humidity, illumination and acceleration, 2 weeks (conclusion)

With `Cc1c(/C=C/c2cc(CN[C@@](C)(CO)C(=O)O)ccc2C(F)(F)F)cccc1-c1ccccc1` [Crystal form B] the hygroscopicity [1] was “hygroscopic”, the weight gain ([1]; from 0% RH to 95% RH) was 7.235% and the Solubility ([2]; FaSSIF (rows r12-r14), 0.5 hours, listed as B) was 13.3 µg/mL (≈ 28.3 µM). For the same compound, the Solubility ([2]; FaSSIF (rows r12-r14), 2 hours, listed as B) was 8.8 µg/mL (≈ 18.7 µM), the Solubility ([2]; FaSSIF (rows r12-r14), 24 hours, listed as B) was 8.6 µg/mL (≈ 18.3 µM) and the Solubility ([2]; FaSSIF as printed (second set, rows r15-r17), 0.5 hours, listed as B) was 176.4 µg/mL (≈ 376 µM). For the same compound, the Solubility ([2]; FaSSIF as printed (second set, rows r15-r17), 2 hours, listed as B) was 175.9 µg/mL (≈ 375 µM), the Solubility ([2]; FaSSIF as printed (second set, rows r15-r17), 24 hours, listed as B) was 179.7 µg/mL (≈ 383 µM) and the Solubility ([2]; SGF, 2 hours) was 0.1 µg/mL (≈ 0.213 µM). For the same compound, the Solubility ([2]; SGF, 24 hours) was 0.2 µg/mL (≈ 0.426 µM), the Solubility ([2]; Water, 0.5 hours) was 2.5 µg/mL (≈ 5.32 µM) and the Solubility ([2]; Water, 2 hours) was 7.5 µg/mL (≈ 16 µM). For the same compound, the Solubility ([2]; Water, 24 hours) was 1.2 µg/mL (≈ 2.56 µM), the solubility at 0.5 h ([2]; simulated gastric fluid (SGF), simulated gastric fluid, SGF, 0.5 hours) was 0.5 µg/mL (≈ 1.06 µM) and the Content [3, 5] was 103.22%. The Total related substances [3, 5] was 0.00%, the Content [3, 6] was 101.60% and the Total related substances [3, 6] was 0.00%. It also gave a Total related substances ([3]; Control, −20° C., 2 weeks) of 0.00%, a Content [3, 7] of 100.09% and a Total related substances [3, 7] of 0.00%. The Content [3, 8] was 100.83%, the Total related substances [3, 8] was 0.00% and the Content [3, 9] was 100.70%. It also gave a Total related substances [3, 9] of 0.00%, a Content [3, 10] of 100.15% and a Total related substances [3, 10] of 0.00%. It also gave a Content [3, 11] of 100.02%, a Total related substances [3, 11] of 0.39% and a Content [3, 12] of 99.69%. For the same compound, the Total related substances [3, 12] was 1.28%, the Appearance [4, 6] was “Off-white” and the “Crystal form (XRPD) after storage” value [4, 6] was “Crystal form B”. For the same compound, the Appearance ([4]; Control, −20° C., 2 weeks) was “Off-white”, the “Crystal form (XRPD) after storage” value ([4]; Control, −20° C., 2 weeks, listed as Crystal form B-Control) was “Crystal form B” and the Appearance [4, 8] was “Off-white”. The “Crystal form (XRPD) after storage” value [4, 8] was “Crystal form B”, the Appearance [4, 10] was “Off-white” and the “Crystal form (XRPD) after storage” value [4, 10] was “Mixed crystal form”. For the same compound, the “Crystal form (XRPD) after storage” value ([4]; High temperature (60° C.), 2 weeks, listed as crystal form B) was “converted into other crystal form”, the Appearance [4, 13] was “Off-white” and the “Crystal form (XRPD) after storage” value [4, 13] was “Crystal form B”. The physical stability ([4]; 2 weeks (conclusion)) was “poor” and the Appearance [4, 14] was “off-white”.

With `Cc1c(/C=C/c2cc(CN[C@@](C)(CO)C(=O)O)ccc2C(F)(F)F)cccc1-c1ccccc1` [Crystal form A] the hygroscopic weight gain ([1]; 80% RH) was 0.310%, the hygroscopic weight gain ([1]; 95% RH) was 0.409% and the hygroscopicity [1] was “slightly hygroscopic”. It also gave a solubility at 0.5 h ([2]; FaSSIF as printed (second set of rows), fessif, FaSSIF, 0.5 hours) of 183 µg/mL (≈ 389 µM), a solubility at 2 h ([2]; FaSSIF as printed (second set of rows), fessif, FaSSIF, 2 hours) of 177 µg/mL (≈ 376 µM) and a solubility at 24 h ([2]; FaSSIF as printed (second set of rows), fessif, FaSSIF, 24 hours) of 170 µg/mL (≈ 363 µM). For the same compound, the Solubility ([2]; FaSSIF, 2 hours) was 2.0 µg/mL (≈ 4.26 µM), the Solubility ([2]; SGF, 0.5 hours) was 0.4 µg/mL (≈ 0.852 µM) and the Solubility ([2]; SGF, 2 hours) was 0.3 µg/mL (≈ 0.639 µM). It also gave a Solubility ([2]; SGF, 24 hours) of 0.1 µg/mL (≈ 0.213 µM), a Solubility ([2]; Water, 24 hours) of 6.1 µg/mL (≈ 13 µM) and a solubility at 0.5 h ([2]; fasted-state simulated intestinal fluid (FaSSIF), fassif, 0.5 hours) of 8.7 µg/mL (≈ 18.5 µM). For the same compound, the solubility at 24 h ([2]; fasted-state simulated intestinal fluid (FaSSIF), fassif, 24 hours) was 4.3 µg/mL (≈ 9.16 µM), the solubility at 0.5 h ([2]; water, 0.5 hours) was 1.5 µg/mL (≈ 3.19 µM) and the solubility at 2 h ([2]; water, 2 hours) was 6 µg/mL (≈ 12.8 µM). The Content [3, 5] was 104.34%, the Total related substances [3, 5] was 0.04% and the Content [3, 6] was 104.13%. The Total related substances [3, 6] was 0.03%, the Total related substances ([3]; Control, −20° C., 2 weeks) was 0.00% and the Content [3, 7] was 104.75%. For the same compound, the Total related substances [3, 7] was 0.10%, the Content [3, 8] was 104.25% and the Total related substances [3, 8] was 0.12%. The Content [3, 9] was 100.69%, the Total related substances [3, 9] was 0.02% and the Content [3, 10] was 104.03%. For the same compound, the Total related substances [3, 10] was 0.03%, the Content [3, 11] was 96.10% and the Total related substances [3, 11] was 3.94%. The Content [3, 12] was 88.50%, the Total related substances [3, 12] was 11.18% and the Appearance [4, 6] was “Off-white”. For the same compound, the “Crystal form (XRPD) after storage” value [4, 6] was “Crystal form A”, the Appearance ([4]; Control, −20° C., 2 weeks) was “Off-white” and the “Crystal form (XRPD) after storage” value ([4]; Control, −20° C., 2 weeks, listed as Crystal form A-Control) was “Crystal form A”. The Appearance [4, 8] was “Off-white”, the “Crystal form (XRPD) after storage” value [4, 8] was “Crystal form A” and the Appearance [4, 10] was “Off-white”. The “Crystal form (XRPD) after storage” value [4, 10] was “Crystal form A”, the Appearance [4, 13] was “Off-white” and the “Crystal form (XRPD) after storage” value [4, 13] was “Crystal form A”. For the same compound, the physical stability ([4]; 2 weeks (conclusion)) was “good” and the Appearance [4, 14] was “off-white”.

For `Cc1c(/C=C/c2cc(CN[C@@](C)(CO)C(=O)O)ccc2C(F)(F)F)cccc1-c1ccccc1` [Compound I], the “inhibitory effect on the combination of PD-1 and PD-L1” value (PD-1 and PD-L1) is listed as “strong inhibitory effect”.
